In PMC2970562, “High-Affinity Inhibitors of Human NAD^+-Dependent 15-Hydroxyprostaglandin Dehydrogenase: Mechanisms of Inhibition and Structure-Activity Relationships” (PLoS ONE, 2010):
Entries after “also recorded” stand apart in the source; their conditions may differ. Read-outs that look alike come from different tables or passages of the source.

What was measured:
[1] = molecular target: T1, ALDH1A1 (Homo sapiens, UniProt P00352); test: Selectivity screen, aldehyde dehydrogenase 1 (PubChem Assay ID 1030); format: biochemical
T1 sequence (P00352 1-501): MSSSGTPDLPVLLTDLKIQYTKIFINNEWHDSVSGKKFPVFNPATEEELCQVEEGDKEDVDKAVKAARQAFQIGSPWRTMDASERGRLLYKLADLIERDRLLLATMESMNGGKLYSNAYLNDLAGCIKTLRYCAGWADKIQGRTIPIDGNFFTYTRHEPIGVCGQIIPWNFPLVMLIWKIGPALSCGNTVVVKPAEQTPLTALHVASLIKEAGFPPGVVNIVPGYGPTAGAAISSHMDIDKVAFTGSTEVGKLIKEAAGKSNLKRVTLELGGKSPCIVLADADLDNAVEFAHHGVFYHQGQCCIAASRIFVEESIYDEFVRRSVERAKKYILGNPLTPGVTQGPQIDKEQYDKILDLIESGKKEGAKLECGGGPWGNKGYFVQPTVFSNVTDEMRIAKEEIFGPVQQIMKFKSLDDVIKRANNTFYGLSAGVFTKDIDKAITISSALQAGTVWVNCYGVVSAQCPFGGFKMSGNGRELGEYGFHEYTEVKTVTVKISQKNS
Experimental: (§2) The list also includes two SDR enzymes, hydroxyacyl dehydrogenase (HADH2, also known as type-10 hydroxysteroid dehydrogenase, HSD17β10; PubChem Assay ID 886) and type-4 hydroxysteroid dehydrogenase (HSD17β4; PubChem Assay ID 893), and a medium-chain dehydrogenase/reductase (MDR), aldehyde dehydrogenase 1 (ALDH1A1; PubChem Assay ID 1030), each of which was tested using a similar experimental protocol to that used for 15-PGDH.

[2] = molecular target: T2, human 15-PGDH (Homo sapiens, UniProt P15428); test: Substrate (PGE2) and cofactor (NAD+) titrations, mechanism of action, global fitting; format: biochemical; details: for Competitive (CM), fit residual Chi^2 value / Mixed-mode (MM), fit residual Chi^2 value / Noncompetitive (NM), fit residual Chi^2 value / Uncompetitive (UM), fit residual Chi^2 value: global fitting; for Titration of NAD^+ K m / Titration of NAD^+ V max [µmol/(min×mg)] / Titration of NAD^+ k cat/K m[×10^6] / Titration of NAD^+ k cat[1/sec]: 30 µM PGE2
T2 construct: comprising residues 3–256 of the human HPGD gene (GenBank identifier: 1203982); His6 (GHHHHHH, behind the TEV site) (C, cleaved yes); made in house; host or cells: E. coli BL21(DE3)-R3
T2 sequence (P15428 3-256): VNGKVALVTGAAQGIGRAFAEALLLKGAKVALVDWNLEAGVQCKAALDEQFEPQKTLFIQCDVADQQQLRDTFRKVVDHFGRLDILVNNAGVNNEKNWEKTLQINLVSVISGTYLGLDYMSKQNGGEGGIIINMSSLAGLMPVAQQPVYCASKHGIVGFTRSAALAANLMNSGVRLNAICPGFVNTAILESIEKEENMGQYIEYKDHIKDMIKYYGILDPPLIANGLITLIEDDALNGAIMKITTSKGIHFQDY
Experimental: (§1) Kinetic studies were performed in 100 mM Tris buffer pH 8.0, containing 0.01% Tween-20 and 10 nM 15-PGDH enzyme. […] All inhibitor compounds were dissolved in 10% (v/v) DMSO at varying concentrations from which they were applied at 1∶5 ratio (resulting in a final concentration of 2% (v/v) DMSO in all assays). For each experiment an aliquot of purified enzyme was thawed freshly and pre-diluted to 10 µM in buffer I (5 mM Tris/HCl, pH 8.0, 150 mM NaCl, 0.01% Tween-20). All experiments were performed in white 384-well PCR microplates (Bio-Rad Laboratories, Inc.) in final assay volumes of 20 µL. Twelve-point compound titrations were set up from serially diluted stock solutions in 10% (v/v) DMSO. […] The initial rates recorded in compound titrations were plotted against -log[compound], and non-linear regression (Levenberg-Marquardt) fitting of the dose-response curve to the Hill equation [47] was performed to derive the IC50, using PRISM 5.0 (GraphPad Software, Inc.). For substrate/cofactor titrations, curves with initial rates plotted against the concentration of substrate or cofactor were fitted to the Michaelis-Menten equation, to derive maximal activities, V max, and Michaelis constants, K m. Fitting qualities were judged from the goodness of fit (R^2>0.98).

[3] = molecular target: T2, human 15-PGDH; test: Compound titrations of re-synthesized inhibitors in the kinetic assay; format: biochemical; details: 10 nM 15-PGDH, 30 µM PGE2, 200 µM NAD+, 25°C, lower percent substrate conversion; read-out: IC50, re-synthesized compounds
Experimental: as §1

[4] = molecular target: T3, HSD17β4 (Homo sapiens, UniProt P51659); test: Selectivity screen, type-4 hydroxysteroid dehydrogenase (PubChem Assay ID 893)
T3 sequence (P51659 1-736): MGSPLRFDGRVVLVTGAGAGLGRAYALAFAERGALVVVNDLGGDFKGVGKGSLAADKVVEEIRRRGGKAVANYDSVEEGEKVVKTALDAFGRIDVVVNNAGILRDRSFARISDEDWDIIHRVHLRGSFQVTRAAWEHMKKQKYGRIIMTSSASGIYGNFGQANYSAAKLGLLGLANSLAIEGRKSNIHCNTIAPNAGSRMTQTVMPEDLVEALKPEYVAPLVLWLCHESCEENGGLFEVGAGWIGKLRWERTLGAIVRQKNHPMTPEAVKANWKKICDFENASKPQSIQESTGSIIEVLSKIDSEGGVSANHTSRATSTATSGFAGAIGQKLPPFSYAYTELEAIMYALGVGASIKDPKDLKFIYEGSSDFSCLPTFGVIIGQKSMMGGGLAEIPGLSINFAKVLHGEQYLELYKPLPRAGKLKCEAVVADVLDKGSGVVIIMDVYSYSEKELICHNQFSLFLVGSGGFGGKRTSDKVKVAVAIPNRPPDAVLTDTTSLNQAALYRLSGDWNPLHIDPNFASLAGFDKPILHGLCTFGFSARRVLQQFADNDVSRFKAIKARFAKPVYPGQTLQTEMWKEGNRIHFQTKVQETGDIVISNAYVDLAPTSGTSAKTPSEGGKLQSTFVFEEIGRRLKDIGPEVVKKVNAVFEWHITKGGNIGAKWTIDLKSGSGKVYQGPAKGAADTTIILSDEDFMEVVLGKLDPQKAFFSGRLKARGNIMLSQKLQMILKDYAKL
Experimental: as §2

[5] = top concentration 57.5 µM, PubChem Assay ID 1030, read-out: IC50/nM ALDH1A1
[6] = NAD+ titration, inhibitor 20 nM
[7] = PGE2 titration, inhibitor 10 nM

What does the source list for `Cc1cccc(-n2cnc3cc(C(=O)N4CCCCC4)ccc32)c1` [Compound 13, [1-(3-methylphenyl)-1H-benzimidazol-5-yl)(piperidin-1-yl)methanone]?
Emax ([1]; ALDH1A1, footnote of Table 3, read-out: Maximal response, inhibition): 70%; IC50 ([1]; ALDH1A1, shallow curve, read-out: approximate IC50): ~36000 nM; IC50 [1, 5]: 36000 nM; decrease of K m for NAD+ [2, 6]: ~45%; decrease of V max [2, 6]: approximately 60%; Sum-of-squares F-test p, UM vs. MM ([2]; NAD^+ titration): UM vs. MM:p = 0.0654; Sum-of-squares F-test p, NM vs. MM ([2]; PGE2 titration): NM vs. MM:p = 0.0017; Sum-of-squares F-test p, UM vs. MM ([2]; PGE2 titration): UM vs. MM:p = 0.0133; decrease of V max [2, 7]: 25%; V max relative to no inhibitor ([2]; PGE2 titration, inhibitor 20 nM, in words): less than half; Preferred mode of inhibition ([2]; PGE2 titration, rejection threshold p = 0.05): MM (MM, mixed-mode inhibition); Competitive (CM), fit residual Chi^2 value ([2]; NAD^+ titration): 0.8764; Mixed-mode (MM), fit residual Chi^2 value ([2]; NAD^+ titration): 0.9675; Noncompetitive (NM), fit residual Chi^2 value ([2]; NAD^+ titration): 0.9655; Uncompetitive (UM), fit residual Chi^2 value ([2]; NAD^+ titration): 0.9664; Competitive (CM), fit residual Chi^2 value ([2]; PGE2 titration): 0.8669; Mixed-mode (MM), fit residual Chi^2 value ([2]; PGE2 titration): 0.9797; Noncompetitive (NM), fit residual Chi^2 value ([2]; PGE2 titration): 0.9777; Uncompetitive (UM), fit residual Chi^2 value ([2]; PGE2 titration): 0.9784; mode of inhibition with respect to the cofactor NAD+ ([2]; in words): uncompetitively; mode of inhibition with respect to the substrate PGE2 ([2]; in words): noncompetitive, uncompetitive or mixed-modes; also recorded: noncompetitively or in a mixed-type mode; Titration of PGE2 K m ([2]; inhibitor 10.0 nM): 3.7 ± 0.5 µM; Titration of PGE2 V max[µmol/(min×mg)] ([2]; inhibitor 10.0 nM): 21.3 µmol/min/mg; Titration of PGE2 k cat/K m[×10^6] ([2]; inhibitor 10.0 nM): 2.8 ×10^6; Titration of PGE2 k cat[1/sec] ([2]; inhibitor 10.0 nM): 10.3 ± 0.3 s⁻¹; Titration of NAD^+ K m ([2]; inhibitor 10.0 nM): 10.7 ± 0.6 µM; Titration of NAD^+ V max [µmol/(min×mg)] ([2]; inhibitor 10.0 nM): 17.5 µmol/min/mg; Titration of NAD^+ k cat/K m[×10^6] ([2]; inhibitor 10.0 nM): 0.8 ×10^6; Titration of NAD^+ k cat[1/sec] ([2]; inhibitor 10.0 nM): 8.5 ± 0.1 s⁻¹; Titration of PGE2 K m ([2]; inhibitor 20.0 nM): 2.8 ± 0.4 µM; Titration of PGE2 V max[µmol/(min×mg)] ([2]; inhibitor 20.0 nM): 12.6 µmol/min/mg; Titration of PGE2 k cat/K m[×10^6] ([2]; inhibitor 20.0 nM): 2.1 ×10^6; Titration of PGE2 k cat[1/sec] ([2]; inhibitor 20.0 nM): 6.1 ± 0.2 s⁻¹; Titration of NAD^+ K m ([2]; inhibitor 20.0 nM): 8.9 ± 0.8 µM; Titration of NAD^+ V max [µmol/(min×mg)] ([2]; inhibitor 20.0 nM): 8.2 µmol/min/mg; Titration of NAD^+ k cat/K m[×10^6] ([2]; inhibitor 20.0 nM): 0.4 ×10^6; Titration of NAD^+ k cat[1/sec] ([2]; inhibitor 20.0 nM): 4.0 ± 0.1 s⁻¹; IC50 [3]: 0.0079 ± 0.0008 µM; IC50 [4]: > 57.5 µM

For `Cc1cc(-c2nnc3n2CCCCC3)c(C)n1-c1ccccc1` [Compound 72], which “response against ALDH1A1” value ([1]; in words) is on record?
Its value is “flat response”.

What about the IC50 [1, 5] of the same molecule?
The IC50 was > 57500 nM.

What about the “Sum-of-squares F-test p, NM vs. MM” value ([2]; PGE2 titration) of the same molecule?
Its value is “NM vs. MM:p = 0.3515”.

And the “effect on the K m” value ([2]; PGE2 titration, in words)?
The value was “no effect”.

What about the “decrease of V max” value [2, 7] of the same molecule?
Its value is “approximately 50%”.

What about the “Competitive (CM), fit residual Chi^2 value” ([2]; PGE2 titration) of the same molecule?
The value was 0.9299.

What about the “Mixed-mode (MM), fit residual Chi^2 value” ([2]; PGE2 titration) of the same molecule?
The value was 0.9736.

What about the “Noncompetitive (NM), fit residual Chi^2 value” ([2]; PGE2 titration) of the same molecule?
Its value is 0.9734.

What about the “Uncompetitive (UM), fit residual Chi^2 value” ([2]; PGE2 titration) of the same molecule?
The value was 0.9680.

And the “mode of inhibition with respect to the substrate PGE2” value ([2]; in words)?
Its value is “noncompetitive or mixed-type”.

And the “Titration of PGE2 K m” value ([2]; inhibitor 4.0 nM)?
The value was 5.6 ± 1.1 µM.

What about the “Titration of PGE2 V max[µmol/(min×mg)]” value ([2]; inhibitor 4.0 nM) of the same molecule?
Its value is 22.8 µmol/min/mg.

And the “Titration of PGE2 k cat/K m[×10^6]” value ([2]; inhibitor 4.0 nM)?
The value was 2.0 ×10^6.

What about the “Titration of PGE2 k cat[1/sec]” value ([2]; inhibitor 4.0 nM) of the same molecule?
The value was 11.1 ± 0.5 s⁻¹.

What about the “Titration of PGE2 K m” value ([2]; inhibitor 10.0 nM) of the same molecule?
The value was 6.4 ± 0.6 µM.

What about the “Titration of PGE2 V max[µmol/(min×mg)]” value ([2]; inhibitor 10.0 nM) of the same molecule?
The value was 15.4 µmol/min/mg.

And the “Titration of PGE2 k cat/K m[×10^6]” value ([2]; inhibitor 10.0 nM)?
The value was 1.2 ×10^6.

What about the “Titration of PGE2 k cat[1/sec]” value ([2]; inhibitor 10.0 nM) of the same molecule?
The value was 7.5 ± 0.2 s⁻¹.

And the IC50 [3]?
The IC50 was 0.015 ± 0.0012 µM.

And the IC50 [4]?
The IC50 was > 57.5 µM.
